{"source": "patent US12478598B2", "about": "(Rush University Medical Center, priority 2019, dated 2025)", "key": {"[1]": {"system": "lenti-GLDC shRNA-insulted mice", "assay": "Barnes maze spatial learning and memory in lenti-GLDC shRNA-insulted mice", "type": "in vivo, C57/BL6 mice", "settings": "50 and 100 mg/kg body wt/d, daily gavage, after 7 d of treatment", "method": "FIG. 1A-1B. […] C57/BL6 mice (8-10 week old) received lentiviral GLDC shRNA (1×10^7 IFU/mouse in 100 μl Hank's Balanced Salt Solution or HBSS) once via tail-vein injection. Therefore, control mice also received 100 μl HBSS via tail-vein. From 7 d after lenti-GLDC shRNA injection, mice were treated with different doses (50 and 100 mg/kg body wt/d) of CA daily via gavage. After 7 d of CA treatment, spatial learning and memory was monitored by Barnes maze (FIG. 1A, latency; FIG. 1B, errors). Results are mean±SEM of five mice per group.\n(§1) C57/BL6 mice (8-10 week old) received lentiviral GLDC shRNA (1×10^7 IFU/mouse in 100 μl Hank's Balanced Salt Solution or HBSS) once via tail-vein injection (FIG. 1). Therefore, a group of control mice received only 100 μl HBSS via tail-vein injection.\n(§2) Therefore, one group of lenti-GLDC shRNA-insulted mice were also treated with 100 μl 0.5% methyl cellulose as vehicle control.\nLenti-GLDC shRNA-insulted mice took longer time to find the correct hole (FIG. 1A) and made more errors (FIG. 1B) as compared to HBSS-treated control mice."}, "[2]": {"system": "lenti-GLDC shRNA-insulted mice", "assay": "Glycine level in cortex of lenti-GLDC shRNA-insulted mice (fluorometric assay kit)", "type": "in vivo, C57/BL6 mice", "settings": "oral, 14 d of treatment", "method": "FIG. 2. […] C57/BL6 mice (8-10 week old) received lentiviral GLDC shRNA (1×10^7 IFU/mouse in 100 μl HBSS) once via tail-vein injection. Therefore, control mice also received 100 μl HBSS via tail-vein. From 7 d after lenti-GLDC shRNA injection, mice were treated with different doses (50 and 100 mg/kg body wt/d) of CA daily via gavage. After 14 d of CA treatment, the level of glycine was measured in cortex by using a fluorometric assay kit (Biovision). Each mouse sample was run in triplicate. Results are mean±SEM of five mice per group.\nas §1, §2\nOn 14 d of treatment, mice were sacrificed and level of glycine was measured in brain (cortex)."}}}
{"smiles": "O=C(O)C=Cc1ccccc1", "note": "[cinnamic acid]", "values": [{"measurement": "errors in reaching the target hole (Barnes maze)", "setting": "[1]", "result": "significantly reduced latency and errors"}, {"measurement": "latency in reaching the target hole (Barnes maze)", "setting": "[1]", "result": "significantly reduced latency"}, {"measurement": "level of glycine in the cortex", "setting": "[2]; 50 mg/kg body wt/d", "result": "very effective in lowering the level of glycine"}, {"measurement": "level of glycine in the cortex", "setting": "[2]; 50 and 100 mg/kg body wt/d", "result": "strongly inhibited the level of glycine"}]}
